Test results taken from patent US20110230504A1, “ALLEVIATING DISORDERS WITH COMBINING AGENTS THAT INCREASE EPOXYGENATED FATTY ACIDS AND AGENTS THAT INCREASE cAMP” (The Regents Of The University Of California Office Of …, priority 2008, published 2011).

How the values were obtained:
[1] = target: peripheral benzodiazepine receptor (PBR, TSPO) (Rattus norvegicus, UniProt P16257); test: Displacement of [3H] PK11195 from TSPO (rat heart mitochondria, CEREP); conditions: methyl ester forms
rats [2] = test: Thermal withdrawal latency, intraplantar LPS inflammatory pain model and non-inflamed controls; type: in vivo, rat; conditions: for thermal withdrawal latency in the absence of inflammation: control rats, i.pl. saline
[3] = Metabolic stability and pharmacokinetics of sEH inhibitors (statements)
rats [4] = test: Open field / motor activity; type: in vivo, rat; conditions: rolipram 0.1 and TPAU 10 mg/kg
StARD1 mRNA [5] = test: StARD1 expression after rolipram and TPAU, qRT-PCR; type: in vivo, rat; conditions: rats
Description: Briefly, RNA from whole spinal cord, brain and adrenal gland samples were extracted using a purelink Micro to Midi total RNA purification kit (Invitrogen, CA). The RNA samples were quantified by spectrophotometry and converted to cDNA using a high capacity cDNA reverse transcription kit from Applied Biosystems (CA, USA). Taq-man probe for StARD1 (Rn00580695_ml) was used according to manufacturer's instructions to quantify relative gene expression (Applied Biosystems CA, USA). Experiments were performed in triplicate with glyceraldehyde 3-phosphate dehydrogenase gene serving as the endogenous control. Mean fold expression values from corresponding vehicle treated animal tissues were used as calibrators.
These findings encouraged us to investigate the expression of StARD1 message as a marker of steroidogenic activity. […] Adrenal StARD1 from the same animals was also monitored as a marker of peripheral steroidogenesis.

mouse sEH = target: T1, mouse sEH (Mus musculus, UniProt P34914); test: biochemical
T1 sequence (P34914 1-554): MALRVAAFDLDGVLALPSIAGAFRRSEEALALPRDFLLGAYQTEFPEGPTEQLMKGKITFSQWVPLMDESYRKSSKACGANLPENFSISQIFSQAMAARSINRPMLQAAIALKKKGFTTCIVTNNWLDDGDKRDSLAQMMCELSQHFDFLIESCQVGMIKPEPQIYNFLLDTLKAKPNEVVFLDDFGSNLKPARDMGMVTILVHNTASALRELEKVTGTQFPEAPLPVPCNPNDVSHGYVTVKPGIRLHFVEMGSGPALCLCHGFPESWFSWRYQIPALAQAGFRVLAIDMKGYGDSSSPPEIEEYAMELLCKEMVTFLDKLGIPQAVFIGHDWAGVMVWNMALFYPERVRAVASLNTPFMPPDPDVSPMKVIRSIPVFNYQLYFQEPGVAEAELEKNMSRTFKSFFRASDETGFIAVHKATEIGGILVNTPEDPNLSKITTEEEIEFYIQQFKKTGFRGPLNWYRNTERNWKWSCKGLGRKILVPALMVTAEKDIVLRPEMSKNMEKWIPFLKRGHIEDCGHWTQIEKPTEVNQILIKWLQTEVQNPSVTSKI

[6] = Brain, blood and plasma inhibitor levels, LC-ESI-MS/MS; conditions: AEPU dermal, TPAU systemic administration
sEH = target: T2, sEH (Homo sapiens, UniProt P34913); test: Testing as sEH inhibitors (assay not specified); type: biochemical
T2 sequence (P34913 1-555): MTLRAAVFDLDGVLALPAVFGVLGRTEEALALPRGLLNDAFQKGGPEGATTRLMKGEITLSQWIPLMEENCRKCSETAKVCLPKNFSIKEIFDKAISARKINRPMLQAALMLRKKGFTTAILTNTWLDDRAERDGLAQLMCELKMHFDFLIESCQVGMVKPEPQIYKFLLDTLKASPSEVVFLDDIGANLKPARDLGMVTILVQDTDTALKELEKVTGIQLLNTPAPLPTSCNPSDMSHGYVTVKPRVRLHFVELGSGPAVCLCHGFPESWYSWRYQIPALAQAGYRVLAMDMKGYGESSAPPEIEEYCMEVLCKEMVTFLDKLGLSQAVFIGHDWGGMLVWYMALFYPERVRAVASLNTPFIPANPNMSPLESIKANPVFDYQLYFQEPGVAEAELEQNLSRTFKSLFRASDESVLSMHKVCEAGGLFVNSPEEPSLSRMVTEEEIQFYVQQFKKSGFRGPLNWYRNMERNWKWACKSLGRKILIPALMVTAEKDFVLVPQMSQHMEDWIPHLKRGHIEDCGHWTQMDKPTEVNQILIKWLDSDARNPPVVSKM
Description: Any of a number of standard assays for determining epoxide hydrolase activity can be used to determine inhibition of sEH. For example, suitable assays are described in Gill, et al., Anal Biochem 131:273-282 (1983); and Borhan, et al., Analytical Biochemistry 231:188-200 (1995)). Suitable in vitro assays are described in Zeldin et al., J. Biol. Chem. 268:6402-6407 (1993). Suitable in vivo assays are described in Zeldin et al., Arch Biochem Biophys 330:87-96 (1996). Assays for epoxide hydrolase using both putative natural substrates and surrogate substrates have been reviewed (see, Hammock, et al. In: Methods in Enzymology, Volume III, Steroids and Isoprenoids, Part B, (Law, J. H. and H. C. Rilling, eds. 1985), Academic Press, Orlando, Fla., pp. 303-311 and Wixtrom et al., In: Biochemical Pharmacology and Toxicology, Vol. 1: Methodological Aspects of Drug Metabolizing Enzymes, (Zakim, D. and D. A. Vessey, eds. 1985), John Wiley & Sons, Inc., New York, pp. 1-93. Several spectral based assays exist based on the reactivity or tendency of the resulting diol product to hydrogen bond (see, e.g., Wixtrom, supra, and Hammock. Anal. Biochem. 174:291-299 (1985) and Dietze, et al. Anal. Biochem. 216:176-187 (1994)).

rats [7] = test: Intraplantar carrageenan inflammatory pain model, intrathecal sEHI; type: in vivo, rat; conditions: intrathecal 0.1-3 μg
Method: The study was approved by UC Davis Animal Care and Use Committee. Male Sprague-Dawley rats weighing 250-350 g were obtained from Charles River Inc. Two models of inflammatory pain and one model of diabetic neuropathic pain were used to test the effects of sEHI. The main inflammatory pain model used involved intraplantar LPS (10 μg/animal) administration as described previously (Inceoglu B et al., Life Sci 79:2311-2319 (2006)). Briefly, following baseline thermal withdrawal latency and mechanical withdrawal threshold determination LPS (in saline) was administered into one hind paw and nociceptive thresholds were monitored over time. The other inflammatory pain model involved intraplantar carrageenan (1% in saline, 50 μl) administration and was only used when sEHI was administered into the spinal cord. Intrathecal catheters were implanted according to Yaksh and Rudy (Yaksh T L and Rudy T A, Physiol Behav 17(6):1031-1036 (1976)). Following baseline nociceptive response measurements carrageenan was administered into one hind paw and responses were monitored over time and after intraspinal sEHI administration. […] In experiments in which EETs, sEHI and cAMP analogue was administered intraspinally animals were maintained under deep anesthesia and therefore nociceptive thresholds were not determined.

COX2 mRNA = test: Spinal COX2 mRNA after intraplantar LPS, qRT-PCR; type: in vivo, rat; conditions: rats
Description: (§1) A purelink Micro to Midi total RNA purification kit (Invitrogen, CA) was used to extract RNA from whole spinal cord, adrenal gland and testis. For brain, the remaining caudal two thirds were sliced into two hemispheres from the midline and a coronal slice of 2 mm in thickness was taken for analysis. The RNA samples were quantified by spectrophotometry and converted to cDNA using a high capacity cDNA reverse transcription kit from Applied Biosystems (CA, USA). Taq-man probes for COX2 (Rn00568225_ml) StARD1 (Rn00580695_ml), ICER(Rn00569145_ml), Sst (Rn00561967_ml), sEH(Rn00576023_ml) genes were used according to manufacturer's instructions to quantify relative gene expression (Applied Biosystems). Experiments were performed in triplicate with GAPDH (glyceraldehyde 3-phosphate dehydrogenase message) serving as the endogenous control. Mean fold expression values from corresponding untreated animal tissues were used as calibrators.

StARD1 mRNA [8] = test: StARD1 mRNA in LPS inflamed rats, qRT-PCR; type: in vivo, rat
Description: as §1

StARD1 mRNA [9] = test: StARD1 mRNA 30 min after intraspinal 8-Br cAMP, EETs, AEPU in non-inflamed rats; type: in vivo, rat; conditions: 8-Br cAMP 100 μg, EETs 5 μg, AEPU 1 μg
Method: To investigate the cooperation between cAMP and EETs in the spinal cord, a membrane permeable cAMP analogue, 8-Br cAMP (100 μg), was administered into the spinal cord by lumbar puncture (between L4-L5) and rapid (30 min.) expression of StARD1 mRNA in the spinal cord and the brain was quantified by qRT-PCR. In these experiments animals were maintained under deep anesthesia.

[10] = system: plasma oxylipins (EETs, DHETs, PGE2); test: Plasma oxylipin analysis in LPS treated rats; type: in vivo, rat; conditions: LPS treated rats, two hours
Description: Plasma was collected by cardiac puncture under deep anesthesia. Rats were anesthetized by isoflurane overdose and decapitated. Whole brains were immediately excised and flash frozen. […] Dorsal roots were excluded.

[11] = system: circulating testosterone and progesterone; test: Circulating steroid hormone levels by RIA; type: in vivo, rat; conditions: rats

CCCCC/C=C\C/C=C\CC1OC1C/C=C\CCCC(=O)O (stereo not drawn) [8,9-EET]
competition with radioligand [3H] PK11195 at TSPO [1]: did not compete

CC(=O)N1CCC(NC(=O)Nc2ccc(OC(F)(F)F)cc2)CC1 [TPAU]
thermal withdrawal latency in the absence of inflammation (rats [2]): no effect | loss of motor activity (rats [2]; rats): No loss of motor activity | metabolic stability [3]: metabolically stable | oral availability and pharmacokinetics [3]: excellent oral availability and pharmacokinetics | open field activity / motor function (rats [4]): did not affect motor function | decrease in adrenal gland StARD1 expression (StARD1 mRNA [5]): 30% | IC50 (mouse sEH): 0.097 µM | penetration into the brain [6]: efficiently penetrated into the brain

CCCCCCCCCCCCNC(=O)NC12CC3CC(CC(C3)C1)C2 [ADU, N-Adamantyl-N′-dodecyl urea]
metabolic stability [3]: metabolically stable | activity as inhibitor of sEH (sEH): particularly high activity

CCOCCOCCOCCCCCNC(=O)NC12CC3CC(CC(C3)C1)C2 [AEPU, Adamantan-1-yl-3-{5-[2-(2-ethoxyethoxy)ethoxy]pentyl}urea]
carrageenan induced mechanical allodynia (rats [7]): dose dependent decrease | carrageenan induced thermal hyperalgesia (rats [7]): dose dependent decrease | thermal withdrawal latency in the absence of inflammation (rats [2]): no effect | LPS elicited thermal hyperalgesia (thermal withdrawal latency) (rats [2]; rats, i.pl. LPS 10 μg): briefly increased | spinal COX2 message after LPS (COX2 mRNA): significantly suppressed | adrenal gland StARD1 mRNA induced by LPS (StARD1 mRNA [8]): reduced | brain StARD1 mRNA expression (StARD1 mRNA [8]): two-fold increase | spinal StARD1 mRNA expression (StARD1 mRNA [8]): sustained | testis StARD1 mRNA induced by LPS (StARD1 mRNA [8]): not in testis | spinal StARD1 expression (StARD1 mRNA [9]): without effect | metabolism [3]: metabolized rapidly | plasma DHET level [10]: decreased | plasma PGE2 level [10]: decreased | circulating / plasma progesterone level [11]: decreased | plasma testosterone level ([11]; with or without LPS): did not alter | penetration into the brain [6]: efficiently penetrated into the brain
